The results in this text go back to EP0192976A1, “Compounds having antihyperlipemic activity, processes for the preparation thereof and pharmaceutical compositions containing them” (BOEHRINGER BIOCHEMIA ROBIN S.p.A., priority 1985, dated 1986).

Read-outs that look alike come from different tables or passages of the source.

Data set [1] has as its system thrombosis induced by the administration of arachidonic acid, as well as colla- gene and adrenalin. Put plainly: Mouse antithrombotic assay (di Minno and Silver). The format is in vivo. To be noted: orally administered at doses from 100 to 250 mg/kg; thrombosis induced by arachidonic acid, and by collagen and adrenalin. The source says: Exper. Therap. 225, 57 (1983).

The subject of data set [2] is fructose induced hypertriglyceridemia. Put plainly: Fructose induced hypertriglyceridemia. To be noted: fructose and Triton induced hypertriglyceridemias (test not given). The format is in vivo, Male Sprague-Dawley rats. How it is done: (§1) The single compounds were administered orally at single equimolecular gradually increasing doses, in order to comparatively evaluate their hypocholesterolemic and hypotriglyceridemic activities. Normolipidemic, and hypercholesterolemic and hypertriglyceridemic rats, following to administration of diets respectively enriched in cholesterol and cholic acid (Nath diet) or 79.5% fructose, were used.
(§2) Male Sprague-Dawley rats of 180-200 g body weight were used. The compounds under test were administered as 1% tylose suspension, by means of gastric probe, 10 animals per dose in comparison with controls, treated with the sole vehicle.
(§3) In the serum the following values were determined: • a) total cholesterol, by enzymatic method; • b) HDL cholesterol, by enzymatic method, after precipitation of the other lipoproteins by addition of phospho- tungstic acid; • c) triglycerides by enzymatic method, i.e. by means of enzymatic hydrolysis and dosage of the formed glycerol.
(§4) The dosage of the liver triglycerides has been carried out by enzymatic method on the evaporated liver extract with chloroform:methanol 2:1.
(§5) The results were evaluated and expressed as % variation with respect to the control groups.
The hypotriglyceridemyzing activity of the compounds of the invention, as already mentioned, was evaluated in fructose and Triton induced hypertriglyceridemias, in comparison with the following standard: 1,10-bisL2-(hydroxyethyl)thio]decane (3) and its nicotinate (4) and nicoti- noyloxymethylcarbonyloxy ester (5).
All the compounds were administered 'at equimolecular gradual dosages.

The test system of data set [3] is Fasting induced lipolysis. Put plainly: Antilipolytic activity, fasting induced lipolysis (free fatty acids). The format is in vivo. To be noted: fasted for 24 hours. How it is done:
(§6) The compounds were administered orally. […] The results are expressed as µEq/1 of free fatty acids.
10 Animals per group - Normally feeded for 6 days, then fasted for 24 hours and orally administered with the test compounds.

A further data set has as its system Normolipolysis. Put plainly: Antilipolytic activity, normolipolysis (free fatty acids). The data set is classed as in vivo. The settings on record: for antilipolytic activity: oral, under normal feeding conditions and in lipolysis induced by fasting or adrenalin. How it is done: as §6
10 Animals per group - Normally feeded for 7 days, then administered with the test compounds.

The subject of data set [4] is hypercholesterolemic animals (Nath diet). Put plainly: Hypocholesterolemic/hypotriglyceridemic activity in hypercholesterolemic rats (Nath diet). The data set is classed as in vivo, Male Sprague-Dawley rats. To be noted: oral. How it is done: as §1, §2
Four dose levels: 1, 2, 4, 8 10^-3 mol/kg were used for each compound under test. The body growth and liver weight were evaluated.
as §3, §4, §5

In data set [5] the test system is Adrenalin induced lypolysis. Put plainly: Antilipolytic activity, adrenalin induced lipolysis (free fatty acids). The data set is classed as in vivo. The settings on record: 1·10^-3 mol/kg oral. Here is the method: as §6
10 Animals per group - Feeded and housed for one weed, then administered orally and stimulated with adrenalin 1 mg/kg i.p., respectively 30 and 60 min. before killing.

Data set [6] relates to ear marginal veins. The settings on record: guinea pig, in vivo.
Description: (§7) Such a side-effect may be experimented on male albino Guinea pigs, weighing 300-400 g, normally feeded and housed in silent room, by observing the vasodilation of ear marginal veins, after administration of the test compounds.
The test system of data set [7] is ear marginal veins. The data set can be described thus: Vasodilation of ear marginal veins (flushing side-effect). The settings on record: Guinea pigs, 1·10^-3 mol/kg.
Description: as §7
Setting [8] is: 2 hours after 1·10^-3 mol/kg oral single dose.
[9] abbreviates: 4 hours after 1·10^-3 mol/kg oral single dose.
Setting [10] is: 8 hours after 1·10^-3 mol/kg oral single dose.
Where [11] appears, read: 2 hours after 1·10^-3 mol/kg oral single dose, normally fed.
Where [12] appears, read: 4 hours after 1·10^-3 mol/kg oral single dose, normally fed.
Where [13] appears, read: 8 hours after 1·10^-3 mol/kg oral single dose, normally fed.
The mark [14] stands for this setting: Basal, normally fed 7 days, group later given 1·10^-3 mol/kg oral single dose.
Setting [15] is: 30', adrenalin 1 mg/kg i.p. 30 min before killing.
The mark [16] stands for this setting: 60', adrenalin 1 mg/kg i.p. 60 min before killing.
Setting [17] is: 4·10^-3 mol/kg, % variation versus controls.

As for `O=C(NC(Cc1ccccc1)C(=O)OCCSCCCCCCCCCCSCCOC(=O)C(Cc1ccccc1)NC(=O)c1cccnc1)c1cccnc1` (centres unmarked) [1,10-bis[2-(nicotinoylphenylalanyl)ethylthio]decane], in data set [1], the protection from thrombosis result is on record as “protect the mouse from thrombosis”.

`OCCSCCCCCCCCCCSCCO` [Compound 3, 1,10-bis[2-(hydroxyethyl)thio]decane]: the “triglyceride hepatic concentration, increases” value in data set [2] is 40-50%.

As for `O=C(OCCSCCCCCCCCCCSCCOC(=O)c1cccnc1)c1cccnc1` [Compound 4], the free fatty acids in data set [3] (setting [8]) worked out at 250 µEq/1; in data set [3] (setting [9]) it was 240 µEq/1; in data set [3] (setting [10]), 970 µEq/1; with Normolipolysis (setting [11]), 120 µEq/1; with Normolipolysis (setting [12]), 155 µEq/1; in the data set with Normolipolysis (setting [13]) it was 450 µEq/1. Moreover, the free fatty acids in the data set with Normolipolysis (setting [14]) is on record as 230 µEq/1. Also, the “preliminar increase of the total cholesterol” value in data set [4] (2·10^-3 mol/kg, versus controls) is 10%. Besides, in data set [4] (all the assayed doses, the decrease lessened with increasing dose), the HDL concentration result is listed as “marked decrease”. Besides, in data set [4] (all the tested doses, tendency to decrease with increasing dose), the triglyceride hematic concentration entry is recorded as “always higher than that in the control animals”. Further, in data set [4] (doses above 2·10^-3 mol/kg, did not vary increasing the dose), the “decrease of the total cholesterol versus controls” value is 50%. Further, in data set [4] (over the tested doses), the liver weight result was “gradual increase”. For the same compound, the FFA in data set [5] (setting [15]) came out at 295 μEq/l; in data set [5] (setting [16]), 625 μEq/l. Besides, the “triglyceride hepatic concentration, increases” value in data set [2] was 40-50%. Further, in the data set with ear marginal veins [6], the “Vasodilating effect: Beginning” value is on record as 10'. Moreover, the “Vasodilating effect: Beginning of disappearance” value in the data set with ear marginal veins [6] was 48'. In the data set with ear marginal veins [6], the “Vasodilating effect: Maximal effect” value was 25'.

As to `CC(NC(=O)c1cccnc1)C(=O)OCCSCCCCCCCCCCSCCOC(=O)C(C)NC(=O)c1cccnc1` (centres unmarked) [Example 7, 1,10-bis[2-(nicotinoyialanylethyl)thio]decane], the protection from thrombosis entry in data set [1] was “protect the mouse from thrombosis”.

Take `O=C(O)c1cccnc1` [Compound 2, nicotinic acid]: the free fatty acids in data set [3] (setting [8]) stood at 180 µEq/1; in data set [3] (setting [9]), 190 µEq/1; in data set [3] (setting [10]), 950 µEq/1; in the data set with Normolipolysis (setting [11]), 110 µEq/1; with Normolipolysis (setting [12]), 160 µEq/1; in the data set with Normolipolysis (setting [13]), 560 µEq/1. For the same compound, the free fatty acids with Normolipolysis (setting [14]) worked out at 260 µEq/1. Besides, in the data set with Normolipolysis, the antilipolytic activity result was “proved to have antilipolytic activity”. For the same compound, the “Vasodilating effect: Beginning” value in the data set on ear marginal veins [7] is on record as 3'. For the same compound, the “Vasodilating effect: Beginning of disappearance” value with ear marginal veins [7] is on record as 20'. In the data set with ear marginal veins [7], the “Vasodilating effect: Maximal effect” value is 6'. For the same compound, the FFA in data set [5] (setting [15]) was 340 μEq/l; in data set [5] (setting [16]), 650 μEq/l.

Turning to `O=C(CNC(=O)c1cncc(Br)c1)OCCSCCCCCCCCCCSCCOC(=O)CNC(=O)c1cncc(Br)c1` [Example 5, 1,10-Bis[2-(5-bromn-nicotinoylglicyl)ethyl-thio]decane], the protection from thrombosis result in data set [1] is on record as “protect the mouse from thrombosis”.

In the case of `O=C(COC(=O)c1cccnc1)OCCSCCCCCCCCCCSCCOC(=O)COC(=O)c1cccnc1` [Compound 5, 1,10-bis[2-(nicotino-yloxymethylcarbonyloxy)ethylthio]decane], the free fatty acids in data set [3] (setting [8]) is 207 µEq/1; in data set [3] (setting [9]) it was 228 µEq/1; in data set [3] (setting [10]), 744 µEq/1; with Normolipolysis (setting [11]), 120 µEq/1; with Normolipolysis (setting [12]), 170 µEq/1; with Normolipolysis (setting [13]), 260 µEq/1. The compound also showed a free fatty acids with Normolipolysis (setting [14]) of 240 µEq/1. Also, the antilipolytic activity result in the data set on Normolipolysis was “proved to have antilipolytic activity”. Also, the “concentration of hepatic triglycerides” value in data set [4] (4·10^-3 mol/kg) is on record as “increase”. Further, the “decrease in hematic HDL cholesterol” value in data set [4] (setting [17]) came to 6%. For the same compound, the “decrease in hematic triglycerides” value in data set [4] (setting [17]) is recorded as 34%. In addition, the “decrease of total plasmatic cholesterol” value in data set [4] (setting [17]) was determined as 30%. The values for the FFA in data set [5] (setting [15]) and in data set [5] (setting [16]) were 270 μEq/l and 610 μEq/l, respectively. Also, the “triglyceride hepatic concentration, percent variations” value in data set [2] is listed as -10 to +10%. For the same compound, the “Vasodilating effect: Beginning” value with ear marginal veins [6] is given as 13'. Moreover, the “Vasodilating effect: Beginning of disappearance” value with ear marginal veins [6] is 51'. Further, in the data set with ear marginal veins [6], the “Vasodilating effect: Maximal effect” value is given as 30'.

`Cc1cnc(C(=O)NCC(=O)OCCSCCCCCCCCCCSCCOC(=O)CNC(=O)c2cnc(C)cn2)cn1` [1,10-bis[2-(5-methylpyrazinoylglycyl)ethylthio]decane]: in data set [1], the protection from thrombosis entry was “protect the mouse from thrombosis”.

`O=C(CNC(=O)c1cccnc1)OCCSCCCCCCCCCCSCCOC(=O)CNC(=O)c1cccnc1` [Compound 1]: the free fatty acids worked out at 480 µEq/1 in data set [3] (setting [8]); 430 µEq/1 in data set [3] (setting [9]); 400 µEq/1 in data set [3] (setting [10]); 200 µEq/1 in the data set on Normolipolysis (setting [11]); 225 µEq/1 in the data set on Normolipolysis (setting [12]); 270 µEq/1 in the data set with Normolipolysis (setting [13]). In addition, the free fatty acids in the data set with Normolipolysis (setting [14]) is recorded as 230 µEq/1. The liver weight entry in data set [4] (4·10^-3 mol/kg) is “no substantial changes”. Moreover, the “decrease in hematic triglycerides” value in data set [4] (setting [17]) amounted to 4%. Moreover, the “decrease in hepatic triglycerides” value in data set [4] (setting [17]) amounted to 48%. For the same compound, in data set [4] (setting [17]), the “decrease of total plasmatic cholesterol” value is given as 37%. Further, the “increase in HDL cholesterol” value in data set [4] (setting [17]) turned out to be 7%. Besides, the figures for the FFA in data set [5] (setting [15]) and in data set [5] (setting [16]) were 450 μEq/l and 400 μEq/l, respectively. In addition, the “triglyceride hepatic concentration, percent variations” value in data set [2] was -10 to +10%. In data set [1], the protection from thrombosis result is given as “protect the mouse from thrombosis”. In the data set on ear marginal veins [6], the “Vasodilating effect: Beginning” value is listed as “==”. Also, the “Vasodilating effect: Beginning of disappearance” value with ear marginal veins [6] was “==”. In the data set with ear marginal veins [6], the “Vasodilating effect: Maximal effect” value is given as “==”.

Take `CCC(C)C(NC(=O)c1cccnc1)C(=O)OCCSCCCCCCCCCCSCCOC(=O)C(NC(=O)c1cccnc1)C(C)CC` (centres unmarked): in data set [1], the protection from thrombosis entry is listed as “protect the mouse from thrombosis”.
